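A five-concentration, 48-hour dose response in 96-well plates underlies each endpoint, interpolated linearly between surrounding concentrations. GI50 = concentration required for 50% inhibition of growth. At the TGI there is no net growth.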
Columns and labels:
Assay in all cases: growth of human tumour cells (NCI), 48 h
[1] = tested on: SNB-19 CNS
[2] = tested on: HCT-15 colon
[3] = tested on: ACHN renal
[4] = tested on: HCT-116 colon
[5] = tested on: SF-268 CNS
[6] = tested on: CCRF-CEM leukemia
[7] = tested on: NCI-H522 lung
[8] = tested on: IGROV1 ovarian
[9] = tested on: NCI/ADR-RES ovarian
[10] = tested on: PC-3 prostate

Question: Which results are given for `CC(=O)O[C@]12CCCCCC1C1(O)C(O)CCC[C@H]12` (stereo partly drawn)?
Answer: TGI [1]: > 100 µM; TGI [2]: > 100 µM; TGI [3]: > 100 µM; TGI [4]: > 100 µM; TGI [5]: > 100 µM; TGI [6]: > 100 µM

Question: With `O=C(NC(Cc1ccc(I)cc1)C(=O)O)c1ccc(I)cc1` (stereo not drawn) as the compound, how does the TGI [1] read?
Answer: > 100 µM

Question: What about the TGI [2] of the same compound?
Answer: > 100 µM

Question: And the TGI [7]?
Answer: > 100 µM

Question: And the TGI [4]?
Answer: > 100 µM

Question: What about the TGI [5] of the same compound?
Answer: > 100 µM

Question: What about the TGI [8] of the same compound?
Answer: > 47.6 µM

Question: What about the TGI [9] of the same compound?
Answer: > 100 µM

Question: And the TGI [6]?
Answer: > 100 µM

Question: Which results are given for `CCOC(=O)/C=C(\C)c1ccc(C)cc1C`?
Answer: TGI [1]: > 100 µM; TGI [2]: 88.6 µM; TGI [3]: > 100 µM; TGI [4]: > 100 µM; TGI [5]: > 100 µM; TGI [8]: > 100 µM; TGI [6]: > 100 µM

Question: Which TGI [1] does the source give for `O=c1c2ccccc2nc2[nH][nH]c(=S)n12` here?
Answer: > 100 µM

Question: What about the TGI [2] of the same compound?
Answer: > 100 µM

Question: And the TGI [3]?
Answer: > 100 µM

Question: And the TGI [4]?
Answer: > 100 µM

Question: What about the TGI [5] of the same compound?
Answer: > 100 µM

Question: What about the TGI [8] of the same compound?
Answer: > 100 µM

Question: What about the TGI [9] of the same compound?
Answer: > 100 µM

Question: What about the TGI [6] of the same compound?
Answer: > 100 µM

Question: What about the TGI [10] of the same compound?
Answer: > 100 µM

Question: For `Cc1cc(=O)c2c([nH]1)NS(=O)(=O)NC2=O`, which TGI [1] is on record?
Answer: > 100 µM

Question: What about the TGI [2] of the same compound?
Answer: > 100 µM

Question: And the TGI [7]?
Answer: > 100 µM

Question: What about the TGI [4] of the same compound?
Answer: > 100 µM

Question: What about the TGI [5] of the same compound?
Answer: > 100 µM

Question: What about the TGI [8] of the same compound?
Answer: > 100 µM

Question: And the TGI [6]?
Answer: > 100 µM

Question: What does the source list for `O=C1C=CC(=O)N1Nc1ccc([N+](=O)[O-])cc1[N+](=O)[O-]`?
Answer: TGI [1]: > 100 µM; TGI [2]: > 100 µM; TGI [7]: > 58.9 µM; TGI [3]: > 100 µM; TGI [4]: > 100 µM; TGI [5]: > 100 µM; TGI [8]: > 100 µM; TGI [6]: > 34.3 µM

Question: For `Cc1c2c(n(CCc3ccc(Cl)cc3)c1C)NN=C(C#N)S2(=O)=O`, which TGI [1] is on record?
Answer: > 100 µM

Question: What about the TGI [2] of the same compound?
Answer: > 100 µM

Question: What about the TGI [3] of the same compound?
Answer: > 100 µM

Question: And the TGI [4]?
Answer: > 100 µM

Question: And the TGI [5]?
Answer: > 100 µM

Question: What about the TGI [8] of the same compound?
Answer: > 100 µM

Question: And the TGI [9]?
Answer: > 100 µM

Question: What about the TGI [10] of the same compound?
Answer: > 100 µM

Question: How did the TGI [1] turn out when `O=c1ccc2cc3ccc4cccc5ccc(c2o1)c3c45` was run?
Answer: > 100 µM

Question: And the TGI [2]?
Answer: > 100 µM

Question: And the TGI [7]?
Answer: > 100 µM

Question: And the TGI [3]?
Answer: 34 µM

Question: What about the TGI [5] of the same compound?
Answer: > 100 µM

Question: And the TGI [8]?
Answer: > 100 µM

Question: And the TGI [6]?
Answer: > 100 µM

Question: For `BrC/C=C/C[P+](c1ccccc1)(c1ccccc1)c1ccccc1`, which TGI [1] is on record?
Answer: > 100 µM

Question: What about the TGI [7] of the same compound?
Answer: 51.3 µM

Question: And the TGI [3]?
Answer: > 100 µM

Question: What about the TGI [4] of the same compound?
Answer: > 100 µM

Question: What about the TGI [5] of the same compound?
Answer: > 100 µM

Question: What about the TGI [8] of the same compound?
Answer: > 100 µM

Question: What about the TGI [6] of the same compound?
Answer: > 100 µM

Question: `COc1cc(C2CC(C)(Nc3ccccc3)Oc3cc4c(cc32)OCO4)cc(OC)c1OC` (stereo not drawn) was tested. Which TGI [1] did it give?
Answer: > 100 µM

Question: What about the TGI [2] of the same compound?
Answer: > 100 µM

Question: What about the TGI [7] of the same compound?
Answer: 10.7 µM

Question: What about the TGI [3] of the same compound?
Answer: > 90.7 µM

Question: What about the TGI [4] of the same compound?
Answer: > 51.2 µM

Question: And the TGI [5]?
Answer: > 100 µM

Question: And the TGI [8]?
Answer: > 59.8 µM

Question: And the TGI [6]?
Answer: 3.72 µM

Question: And the TGI [10]?
Answer: > 100 µM

Question: Which TGI [1] does the source give for `O=C(c1cc2ccccc2cc1O)N1CCCCC1` here?
Answer: > 100 µM

Question: What about the TGI [2] of the same compound?
Answer: > 100 µM

Question: What about the TGI [3] of the same compound?
Answer: > 100 µM

Question: And the TGI [4]?
Answer: > 100 µM

Question: And the TGI [5]?
Answer: > 100 µM

Question: And the TGI [8]?
Answer: 50 µM

Question: And the TGI [9]?
Answer: 94.3 µM

Question: And the TGI [6]?
Answer: 42.6 µM

Question: What about the TGI [10] of the same compound?
Answer: > 100 µM

Question: Which TGI [1] does the source give for `COCOc1ccc(Cn2c(=O)n(C)c(=O)c3c2ncn3C)cc1[N+](=O)[O-]` here?
Answer: > 100 µM

Question: What about the TGI [2] of the same compound?
Answer: > 100 µM

Question: What about the TGI [7] of the same compound?
Answer: > 100 µM

Question: What about the TGI [3] of the same compound?
Answer: > 100 µM

Question: What about the TGI [4] of the same compound?
Answer: > 100 µM

Question: What about the TGI [5] of the same compound?
Answer: > 100 µM

Question: And the TGI [8]?
Answer: > 100 µM

Question: And the TGI [6]?
Answer: > 100 µM

Question: For `COc1cc([N+](=O)[O-])c(OC)cc1-c1nc2sc(Cl)cn2c1/C=N/Nc1ccccn1`, which GI50 [1] is on record?
Answer: > 50 µM

Question: And the TGI [1]?
Answer: > 50 µM

Question: And the GI50 [2]?
Answer: 28.1 µM

Question: What about the TGI [2] of the same compound?
Answer: > 50 µM

Question: And the GI50 [7]?
Answer: > 50 µM

Question: What about the TGI [7] of the same compound?
Answer: > 50 µM

Question: What about the GI50 [3] of the same compound?
Answer: 8.43 µM

Question: What about the TGI [3] of the same compound?
Answer: 16.9 µM

Question: What about the GI50 [5] of the same compound?
Answer: 19.2 µM

Question: And the TGI [5]?
Answer: > 50 µM

Question: What about the GI50 [8] of the same compound?
Answer: > 50 µM

Question: What about the TGI [8] of the same compound?
Answer: > 50 µM

Question: And the GI50 [6]?
Answer: > 50 µM

Question: And the TGI [6]?
Answer: > 50 µM

Question: And the GI50 [10]?
Answer: 16.4 µM

Question: And the TGI [10]?
Answer: > 50 µM

Question: For `CCOC(=O)NC(=S)NN(C)C1=NCC(C)(C)S1`, which TGI [1] is on record?
Answer: > 100 µM

Question: And the TGI [2]?
Answer: > 100 µM

Question: And the TGI [7]?
Answer: > 100 µM

Question: What about the TGI [3] of the same compound?
Answer: > 100 µM

Question: And the TGI [4]?
Answer: > 100 µM

Question: And the TGI [8]?
Answer: > 100 µM

Question: And the TGI [6]?
Answer: > 100 µM

Question: What about the TGI [10] of the same compound?
Answer: > 100 µM

Question: With `C1=CC2=CC=CC3c4nc5ccc6ccccc6c5nc4C(=C1)C23` (stereo not drawn) as the compound, how does the TGI [1] read?
Answer: > 100 µM

Question: What about the TGI [2] of the same compound?
Answer: > 100 µM

Question: What about the TGI [3] of the same compound?
Answer: > 100 µM

Question: What about the TGI [4] of the same compound?
Answer: > 100 µM

Question: What about the TGI [5] of the same compound?
Answer: > 100 µM

Question: And the TGI [8]?
Answer: > 100 µM

Question: What about the TGI [9] of the same compound?
Answer: > 100 µM

Question: What about the TGI [6] of the same compound?
Answer: > 100 µM

Question: And the TGI [10]?
Answer: > 100 µM

Question: With `O=[N+]([O-])/C(C(Cl)=C(Cl)Cl)=C(\Nc1cccc2cccnc12)SCc1ccccc1` as the compound, how does the TGI [1] read?
Answer: 42 µM

Question: And the TGI [2]?
Answer: 43.4 µM

Question: And the TGI [3]?
Answer: 64.4 µM

Question: And the TGI [4]?
Answer: 36.1 µM

Question: And the TGI [5]?
Answer: 42.3 µM

Question: And the TGI [9]?
Answer: 51.7 µM

Question: What about the TGI [6] of the same compound?
Answer: 97.4 µM

Question: What about the TGI [10] of the same compound?
Answer: 36.5 µM

Question: How did the TGI [1] turn out when `C=CCNC(=S)/N=C/c1c(O)c2ccccc2oc1=O` was run?
Answer: > 100 µM

Question: What about the TGI [2] of the same compound?
Answer: > 100 µM

Question: What about the TGI [7] of the same compound?
Answer: > 100 µM

Question: What about the TGI [3] of the same compound?
Answer: > 100 µM

Question: What about the TGI [4] of the same compound?
Answer: > 100 µM

Question: And the TGI [5]?
Answer: > 100 µM

Question: And the TGI [8]?
Answer: > 100 µM

Question: What about the TGI [6] of the same compound?
Answer: > 100 µM

Question: `O=S(=O)(O)c1cc2ccc1/C=C\c1ccc(cc1S(=O)(=O)O)N=Nc1ccc(c(S(=O)(=O)O)c1)/C=C\c1ccc(cc1S(=O)(=O)O)N=N2` was tested. Which TGI [1] did it give?
Answer: > 100 µM

Question: What about the TGI [2] of the same compound?
Answer: > 100 µM

Question: What about the TGI [7] of the same compound?
Answer: > 100 µM

Question: What about the TGI [4] of the same compound?
Answer: > 100 µM

Question: What about the TGI [5] of the same compound?
Answer: > 100 µM

Question: What about the TGI [8] of the same compound?
Answer: > 100 µM

Question: And the TGI [9]?
Answer: > 100 µM

Question: And the TGI [6]?
Answer: > 100 µM

Question: How did the TGI [1] turn out when `O=C(NCCCN(CCCCN(CCCNC(=O)C(F)(F)F)Cc1ccccc1)Cc1ccccc1)C(F)(F)F` was run?
Answer: 26.6 µM

Question: And the TGI [2]?
Answer: 24.9 µM

Question: And the TGI [7]?
Answer: 22.3 µM

Question: What about the TGI [3] of the same compound?
Answer: 30.1 µM

Question: What about the TGI [4] of the same compound?
Answer: 23.6 µM

Question: What about the TGI [5] of the same compound?
Answer: 25 µM

Question: And the TGI [8]?
Answer: 26.2 µM

Question: What about the TGI [9] of the same compound?
Answer: 30.1 µM

Question: And the TGI [6]?
Answer: 51.7 µM

Question: For `c1ccc2c(c1)NC(C1OC3CCCN3C1C1Nc3ccccc3S1)S2` (stereo not drawn), which TGI [1] is on record?
Answer: > 100 µM

Question: What about the TGI [2] of the same compound?
Answer: > 100 µM

Question: What about the TGI [7] of the same compound?
Answer: > 100 µM

Question: What about the TGI [3] of the same compound?
Answer: > 100 µM

Question: What about the TGI [4] of the same compound?
Answer: > 100 µM

Question: And the TGI [5]?
Answer: > 100 µM

Question: What about the TGI [8] of the same compound?
Answer: > 100 µM

Question: And the TGI [6]?
Answer: > 100 µM

Question: And the TGI [10]?
Answer: > 100 µM

Reference: PubChem BioAssay (NCI)
